Values of other authors as cited in patent US6534676B2, “Method to treat chronic heart failure and/or elevated cholesterol levels using 3,5-diiodothyropropionic acid and method to prepare same” (The Arizona Board of Regents on Behalf of the University of …, priority 2001, dated 2003).

What was measured:
[1] = short-term intravenous, patients with advanced congestive failure; cited from earlier work
[2] = background statement; cited from earlier work

| SMILES | cardiac output and arterial vascular resistance [1] | half-life [2] |
| --- | --- | --- |
| N[C@@H](Cc1cc(I)c(Oc2ccc(O)c(I)c2)c(I)c1)C(=O)O [T3, 3′,3,5-L-triiodothyrone] | improve cardiac output and decrease arterial vascular resistance | two days or less |
| NC(Cc1cc(I)c(Oc2cc(I)c(O)c(I)c2)c(I)c1)C(=O)O [Thyroxine, 3,5,3′5′-L-thyronine] |  | 140 to 170 h |
